Assay results published in patent publication US10208007B2, “Use of strigolactones and strigolactone analogs for treating proliferative conditions” (The State of Israel, Ministry of Agriculture & Rural …, priority 2011, dated 2019).
Blank lines part the entries; values can stand above or below the compound they belong to.

Columns and labels:
[1] = test system: DU145; assay: XTT viability assay; format: cell-based, human; settings: DU145, 3 days
Method: (§1) Viability was assayed after 3 days (XTT, ATCC). IC50 concentrations are indicated (Table 3 above).

[2] = test system: HCT116; assay: XTT viability assay; format: cell-based, human; settings: HCT116, 3 days
Method: as §1

[3] = test system: HT-29; assay: XTT viability assay; format: cell-based, human; settings: HT-29, 3 days
Method: as §1

[4] = test system: K562; assay: XTT viability assay; format: cell-based, human; settings: K562, 3 days
Method: as §1

[5] = test system: LNCaP; assay: XTT viability assay; format: cell-based, human; settings: 3 days
Method: as §1

[6] = test system: MCF-7; assay: XTT viability assay; format: cell-based, human; settings: MCF-7, 3 days
Method: as §1

[7] = test system: MDA-MB-231; assay: XTT viability assay; format: cell-based, human; settings: MDA-MB-231, 3 days
Method: as §1

[8] = test system: MDA-MB-436; assay: XTT viability assay; format: cell-based, human; settings: MDA-MB-436, 3 days
Method: as §1

[9] = test system: PC3; assay: XTT viability assay; format: cell-based, human; settings: PC3, 3 days
Method: as §1

[10] = test system: SW480; assay: XTT viability assay; format: cell-based, human; settings: SW480, 3 days
Method: as §1

[11] = test system: T47D; assay: XTT viability assay; format: cell-based, human; settings: 3 days
Method: as §1

[12] = test system: U20S; assay: XTT viability assay; format: cell-based, human; settings: 3 days
Method: as §1

[13] = test system: cancer derived cell lines; assay: XTT viability assay, all cell lines tested; format: cell-based, human; settings: span over the cell lines
Method: MCF-10A cells were used as non-tumorigenic line and various cell lines derived from other types of solid tumors were compiled including colon (HCT116, HT29, SW480), prostate (PC3, DU145, LNCaP), lung (A549), osteosarcoma (U20S) and Melanoma (T11) cell lines. A non-adherent leukemic cancer cell line, K562, was also included to further diversify the cohort (FIG. 7).
as §1

[14] = test system: HCT116 cells; assay: Annexin V / PI staining; format: cell-based, human; settings: 48 hours, from 3.6%
Method: Cells were cultured for 48 hours under the same conditions as those used for the DNA content/cell cycle analysis. All the cells were collected and resuspended in 100 μl 1× Annexin V Binding Buffer (BD Biosciences, San Jose, Calif., USA). 2 μl FITC-Annexin V (BD Biosciences) was added and incubated for 10 min in the dark (room temperature). Cells were then stained with PI (Sigma, Saint Louis, Mo., USA) to a final concentration of 5 μg/ml and the cells were incubated at room temperature for 15 min in the dark. Then, 400 μl of Annexin V binding buffer were added and flow cytometry was performed using a BD FACSCalibur flow cytometer. Cells were considered to be apoptotic if they were Annexin V+/PI− (early apoptotic) and Annexin V+/PI+ (late apoptotic). Each analysis was performed using at least 20,000 events.
Chromosome condensation at mitosis is accompanied by phosphorylation of histone H3. Accordingly, in order to determine if cells were arresting at G2 or M phase, HCT116 cells were analyzed for pS10 Histone H3 following strigolactone analogs exposure. […] To further quantify whether the growth inhibition observed in-vitro following strigolactone treatment was due in part to apoptosis, HCT116 cells were dual stained with Annexin V and PI (Prodidium Iodide). Annexin V staining indicate the inversion of the inner leaflet of the plasma membrane an early event of apoptosis. Late apoptosis is characterized by loss of membrane integrity and cells become permeable to PI. […] Cells were incubated for 48 hours and then co-stained with annexin-V and PI (FIG. 12F). Following treatment with 10 ppm and 15 ppm MEB-55, the percentage of late apoptotic cell increased from 3.6% to 62% and 85% respectively (FIG. 12F, lower panel). […] Dual Annexin V/PI staining analysis was also carried out on two other colon cancer cell lines, (SW480, HT29) following strigolactone treatment. Increased apoptosis was also observed in these lines following MEB-55 treatment in a dose dependent manner (FIG. 12D).

[15] = test system: MCF-7 mammospheres; assay: Mammosphere formation; format: cell-based, human; settings: 5 ppm and above
Method: Adherent cells were gently trypsinized, (0.05% trypsin/EDTA) washed twice in PBS and filtered through a […] cell sieve to obtain a single cell suspensions. Cells were diluted to a concentration of 10,000 cell/ml in serum-free phenol-red free MEBM (MEGM Bulletkit, Lonza) supplemented with 5 μg/ml bovine insulin, 20 ng/ml recombinant epidermal growth factor, 20 ng/ml basic fibroblast growth factor (Gibco), 1×B27 supplement, 0.5 μg/ml hydrocortisone (MEGM Bulletkit, Lonza). For MDA-MB-231 mammosphere cultures serum-free phenol red-free CnT-27 medium with growth additives (CellnTEC Advanced cell systems, Bern, Switzerland) was used as previously described. 0.1 ml was seeded per well of a Ultralow attachment 96 well plates. The following day the indicated doses of GR-24 (ppm) or vehicle alone (0.6% acetone f/c) were added. Media was replenished every 3-4 days. Self-renewal capacity of the mammospheres was determined by re-plating and producing further generations of mammospheres. Secondary mammospheres were cultivated by dissociation (trypsinization with gently vortexing) of 10-14 day old primary mammospheres. Single cell suspensions were obtained as described above.
(§2) Given the similar effects the other strigolactone analogs had on breast cancer cell line growth compared to GR-24, we anticipated that the strigolactone analogs would also have similar effects on MCF-7 primary mammosphere formation (FIG. 10): MCF-7 cells were seeded in MEBM media into low attachment, 96 well plates in duplicate at 3000 cells per well. The same day the indicated doses of strigolactone analogs were added. After 7 days representative images were taken. […] Like GR-24, the doses required to inhibit mammosphere formation are lower than that required to inhibit proliferation in monolayer cultures (5 fold lower; ST-362 and MEB-55, 3 fold lower; ST-357). To determine if the sensitivity to strigolactone analogs treatments was specific to mammosphere formation or whether it extended to the integrity and survival of mature mammospheres, MCF-7 mammospheres were grown in the absence of strigolactone analogs and after 7 days (or once mammospheres had reached a mean diameter of over […]), strigolactone analogs were added to the growth media (FIG. 10) at the indicated doses. MCF-7 cells were seeded in MEBM media into low attachment, 96 well plates in duplicate at 3000 cells per well and primary mammospheres left to grow for 7 days. At which time the indicated doses of strigolactone analogs were added to the media. FIG. 11A is a representative image of mammospheres treated with 5 ppm concentrations, showing dissociation after 2 days of exposure to strigolactone analogs. […] Following […] treatment, mammospheres were monitored visually after 24 and 48 hours. No changes were observed following 24 hours of strigolactone analogs treatment. […] At 5 ppm concentrations EG-5, EG-9C, ST-357, ST-362 and MEB-55 reduce mammosphere numbers from 86.7+6.8 (vehicle control) to 23+5, 38+6.2, 6+2, 8.3+3.5 and 9.3+1.5%, respectively. At 2.5 ppm concentrations, mammosphere numbers were reduced to 35+6.9 (EG-5), 52+12.3 (EG-9C), 22+8.5 (ST-357), 6+1.7 (ST-362) and 20.7+8.6 (MEB-55). […] XTT viability assays were also carried out on dissociated mammospheres. At concentrations of 5 ppm, EG-5, ST-362 and MEB-55 reduced viability to 3.7+0.5, 25.5+8.8 and 4.6+1.1% respectively.

[16] = test system: MCF-7 mammospheres; assay: cells; format: cell-based, human; settings: for Mammosphere numbers (>100 μM), percentage of vehicle treated control: 5 days
Method: as §2

[17] = test system: MCF10A; settings: 3 days
Method: Results are presented as Average±SD of replicate analyses and are either representative of, or inclusive of at least two independent experiments. Statistical analyses were performed using student's t-test (2-tailed, paired) versus vehicle controls and are regarded as being significant when P<0.05(*). Higher powers (p<0.01, p<0.001) are also employed and indicated in each figure legend. IC50 doses for strigolactone analogs were calculated by interpolation of the sigmoidal dose response curves (Graphpad Prism 4.0 software). Briefly, linear regression was performed between relevant y-axis data points and interpolation calculated for x-axis unknowns.
Cells were seeded into a 96 well plates at 1500 cells per well (MCF-10, PC3, DU145, MDA-MB-231, MDA-MB-436, HT-29, SW480), 1000 cells per well (K562) or 4000 cells per well (MCF-7, HCT116) in triplicate in normal growing media (with the exception of K562, a non-adherent leukemic cell line which was seeded in phenol-free DMEM supplemented with 10% charcoal-stripped FBS). The following day media was replaced with phenol-free DMEM supplemented with 10% charcoal stripped FBS and the indicated final concentrations of strigolactone analog or vehicle (acetone) alone. Cells were incubated for 3 days, at which time XTT (2,3,-bis(2-methoxy-4-nitro-5-sulfophenyl)-5-[(phenylamino)-carbonyl]-2H-tetrazolium inner salt) reduction was used to quantify viability according to manufacturer's instruction (ATCC). Cells were incubated with XTT reagent for 2-3 hours at 37° C. in a humidified 5% CO2-95% air atmosphere. Absorbance was recorded by a photometer [sequence]luor Plus, Tecan (Salzburg, Austria) at 450 nm with 750 nm of reference wavelength. Cell survival was estimated from the equation: % cell survival=100×(At−Ac), where At and Ac are the absorbencies (450 nm) of the XTT colorimetric reaction (ATCC) in treated and control cultures respectively minus non-specific absorption measured at 750 nm. Absorbance of medium alone was also deducted from specific readings.
MCF-10A cells were included as an example of a non-tumorigenic line. XTT viability assays were carried out in the presence of the indicated doses of strigolactone analogs following 3 days of treatment. Resulting differences in absorbance readings following strigolactone analogs treatment reflect changes in proliferation and cell survival (FIG. 7A-C): Cells were seeded into 96 well plates in normal growing media. The following day media was replaced with phenol-free DMEM supplemented with 10% charcoal-stripped serum and the indicated doses of strigolactone analog or vehicle (cont.) alone. Viability was assayed after 3 days (XTT, ATCC).

[18] = test system: MDA-231 cells; assay: Combination with cisplatin, Combination Index (Chou and Talalay); format: cell-based, human; settings: cisplatin line of Table 8
Method: To determine if these concentrations of ST-362 can enhance the efficacy of low doses of cisplatin, MDA-231 cells were treated with varying concentrations of cisplatin in the presence of ST-362 IC50 and IC20 concentrations. The combination of ST-362 with low doses of cisplatin ranging for 0.01 to 0.1 μM produced a greater effect than each of the drugs alone (FIG. 20).

[19] = test system: P38; assay: Immunoblot of HSP27 phosphorylation with P38 inhibitor; format: cell-based, human; settings: MDA-231 cells, 2 μM and 10 μM, 1 hour pretreatment

IC50 at 72 h [1]: 15 ppm | IC50 at 72 h [2]: >15 ppm | IC50 at 72 h [3]: >15 ppm | IC50 at 72 h [4]: >15 ppm | IC50 at 72 h [5]: >20 ppm | IC50 at 72 h [6]: 17.3 ppm | IC50 at 72 h [7]: >10 ppm | IC50 at 72 h [8]: >10 ppm | IC50 at 72 h [9]: >15 ppm | IC50 at 72 h [10]: >15 ppm | IC50 at 72 h [11]: >10 ppm | IC50 concentration over all cell lines tested [13]: 10-15 ppm
Compound: CC1=CC(O/C=C2\Cc3c(n(C)c4ccc(-c5ccc(N(C)C)cc5)cc34)C2=O)OC1=O (racemic) [EG-9c, (±) (2E)-4-methyl-2-(4-methyl-5-oxo-2,5-dihydrofuran-2-yloxymethylene)-7-[(4-dimethylamino)-phenyl]-1,4-dihydro-2H-cyclopenta[b]indol-3-one]
IC50 at 72 h [12]: 4.5 ppm | Percentage of late apoptotic cells (Annexin V+/PI+) ([14]; 10 ppm): 12.5% | Percentage of late apoptotic cells (Annexin V+/PI+) ([14]; 15 ppm): 43.3% | Mammosphere formation [15]: completely block mammosphere formation | Mammosphere morphology ([16]; 2.5-5 ppm, after 48 hours): less dramatic morphological change | Mammosphere numbers (>100 μM), percentage of vehicle treated control ([16]; 2.5 ppm): 52+12.3% | Mammosphere numbers (>100 μM), percentage of vehicle treated control ([16]; 5 ppm, vehicle control 86.7+6.8): 38+6.2% | IC50 at 72 h [17]: >15 ppm

Compound: N.N.[Cl][Pt][Cl] [Cisplatin, cisplatin]
CI [18]: 0.8

Compound: C[S+]([O-])c1ccc(-c2nc(-c3ccncc3)c(-c3ccc(F)cc3)[nH]2)cc1 (stereo not shown) [SB203580]
HSP27 phosphorylation induced by ST-362 and MEB-55 [19]: sufficient to inhibit HSP27 phosphorylation
